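Five compound concentrations were applied to cells in 96-well plates for 48 hours; endpoints were derived by simple linear interpolation of the resulting dose-response curve. GI50: concentration for 50% inhibition of growth.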 Active and inactive are the calls of the source. Rule as the data show it: active = GI50 up to about 1.1 µM and inactive = higher.
Columns and labels:
Assay in all cases: DTP human tumour cell line panel, 48 h
[1] = test system: NCI-H460
[2] = test system: SF-295
[3] = test system: K562
[4] = test system: HOP-62
[5] = test system: NCI-H522
[6] = test system: OVCAR-8
[7] = test system: LOX IMVI
[8] = test system: U-251
[9] = test system: A549
[10] = test system: OVCAR-3
[11] = test system: SK-MEL-2
[12] = test system: SK-OV-3
[13] = test system: HCC 2998
[14] = test system: MOLT-4
[15] = test system: ACHN
[16] = test system: UACC-62
[17] = test system: NCI/ADR-RES
[18] = test system: MCF7
[19] = test system: DU-145
[20] = test system: MDA-MB-231

Row | Structure (SMILES) | GI50 [1] | GI50 [2] | GI50 [3] | GI50 [4] | GI50 [5] | GI50 [6] | GI50 [7] | GI50 [8] | GI50 [9] | GI50 [10] | GI50 [11] | GI50 [12] | GI50 [13] | GI50 [14] | GI50 [15] | GI50 [16] | GI50 [17] | GI50 [18] | GI50 [19] | GI50 [20]
1 | CC(C)(C)C1(O)Cc2ccccc2C(=O)O1 (configuration not stated) | > 100 µM (inactive) | > 100 µM (inactive) | > 100 µM (inactive) | > 100 µM (inactive) | > 100 µM (inactive) | > 100 µM (inactive) | > 100 µM (inactive) | > 100 µM (inactive) | > 100 µM (inactive) | > 100 µM (inactive) | > 100 µM (inactive) | > 100 µM (inactive) | > 100 µM (inactive) | > 100 µM (inactive) | > 100 µM (inactive) | > 100 µM (inactive) | – | – | – | –
2 | Cc1cc(C)c(N[S+]([O-])c2cccc(Cl)c2)c(C)c1 (configuration not stated) | > 100 µM (inactive) | > 100 µM (inactive) | > 100 µM (inactive) | > 100 µM (inactive) | – | > 100 µM (inactive) | – | > 100 µM (inactive) | > 100 µM (inactive) | > 100 µM (inactive) | – | – | – | > 100 µM (inactive) | > 100 µM (inactive) | – | > 100 µM (inactive) | > 100 µM (inactive) | > 100 µM (inactive) | –
3 | CC1(O)Oc2ccc3ccccc3c2C=C1C(N)=O (configuration not stated) | 61.1 µM (inactive) | > 100 µM (inactive) | > 100 µM (inactive) | 36.7 µM (inactive) | – | – | > 100 µM (inactive) | > 100 µM (inactive) | – | – | 40.4 µM (inactive) | > 100 µM (inactive) | > 100 µM (inactive) | 18.6 µM (inactive) | > 100 µM (inactive) | > 100 µM (inactive) | – | > 100 µM (inactive) | > 100 µM (inactive) | 38.9 µM (inactive)
4 | CNC(=S)NN=C1NCCCCN1 | > 100 µM (inactive) | > 100 µM (inactive) | > 100 µM (inactive) | > 100 µM (inactive) | > 100 µM (inactive) | > 100 µM (inactive) | > 100 µM (inactive) | > 100 µM (inactive) | > 100 µM (inactive) | > 100 µM (inactive) | > 100 µM (inactive) | > 100 µM (inactive) | > 100 µM (inactive) | > 100 µM (inactive) | > 100 µM (inactive) | > 100 µM (inactive) | > 100 µM (inactive) | > 100 µM (inactive) | – | > 100 µM (inactive)
5 | Cc1cc2c(cc1-c1cc3c(cc1C)C(C(C)C)=C(O)C(=O)/C3=C\Nc1c3ccccc3nc3ccccc13)/C(=C/Nc1c3ccccc3nc3ccccc13)C(=O)C(O)=C2C(C)C | 2.09 µM (inactive) | 2.31 µM (inactive) | – | 4.26 µM (inactive) | 1.13 µM (inactive) | 2.3 µM (inactive) | – | 4.02 µM (inactive) | 2.97 µM (inactive) | 3.47 µM (inactive) | 5.58 µM (inactive) | 3.34 µM (inactive) | – | 3.27 µM (inactive) | 1.49 µM (inactive) | 3.66 µM (inactive) | 2.59 µM (inactive) | 3.17 µM (inactive) | 6.3 µM (inactive) | 4.55 µM (inactive)
6 | CN(/N=C/c1ccnc2ccccc12)c1ccc([N+](=O)[O-])cc1[N+](=O)[O-] | > 100 µM (inactive) | 37.3 µM (inactive) | > 100 µM (inactive) | 30.3 µM (inactive) | > 100 µM (inactive) | > 100 µM (inactive) | 81.7 µM (inactive) | > 100 µM (inactive) | > 100 µM (inactive) | 19.7 µM (inactive) | 28.6 µM (inactive) | 47.5 µM (inactive) | > 100 µM (inactive) | > 100 µM (inactive) | > 100 µM (inactive) | > 100 µM (inactive) | – | – | – | –
7 | CC(C)(C)c1cc(C(C)(C)C)c(SS(=O)(=O)O)c(O)c1O | 10.9 µM (inactive) | 31.8 µM (inactive) | 0.246 µM (active) | 54.6 µM (inactive) | – | 44.9 µM (inactive) | 35.4 µM (inactive) | 27.2 µM (inactive) | 9.33 µM (inactive) | 34.1 µM (inactive) | 21.2 µM (inactive) | > 100 µM (inactive) | – | < 0.01 µM (active) | 31.6 µM (inactive) | 21.5 µM (inactive) | 58.1 µM (inactive) | 36.3 µM (inactive) | 62.5 µM (inactive) | 52.7 µM (inactive)
8 | Cc1cc(C)nc(NC(=S)Nc2ccccc2Cl)c1 | > 100 µM (inactive) | > 100 µM (inactive) | > 100 µM (inactive) | > 100 µM (inactive) | > 100 µM (inactive) | > 100 µM (inactive) | > 100 µM (inactive) | > 100 µM (inactive) | > 100 µM (inactive) | > 100 µM (inactive) | > 100 µM (inactive) | > 100 µM (inactive) | – | > 100 µM (inactive) | – | > 100 µM (inactive) | > 100 µM (inactive) | > 100 µM (inactive) | > 100 µM (inactive) | –
9 | Cc1cc(C)c2c(c1)C1=NCCN1C2(O)c1ccc(Cl)cc1 (configuration not stated) | 14.9 µM (inactive) | 15.7 µM (inactive) | 19.1 µM (inactive) | 15.2 µM (inactive) | – | 15.8 µM (inactive) | 29.3 µM (inactive) | 17.7 µM (inactive) | 18.2 µM (inactive) | 15.5 µM (inactive) | 18.5 µM (inactive) | 15 µM (inactive) | – | 37.6 µM (inactive) | 16.1 µM (inactive) | 15.9 µM (inactive) | 14.4 µM (inactive) | 18 µM (inactive) | 19.5 µM (inactive) | 14.6 µM (inactive)
10 | Cc1ccc(Nc2nc(C)c(C(=O)CC(=O)C(=O)Nc3ccc(Cl)cc3)s2)cc1 | > 100 µM (inactive) | > 100 µM (inactive) | > 100 µM (inactive) | > 100 µM (inactive) | > 100 µM (inactive) | – | > 100 µM (inactive) | > 100 µM (inactive) | > 100 µM (inactive) | > 100 µM (inactive) | > 100 µM (inactive) | > 100 µM (inactive) | > 100 µM (inactive) | > 100 µM (inactive) | > 100 µM (inactive) | > 100 µM (inactive) | – | > 100 µM (inactive) | > 100 µM (inactive) | 56.5 µM (inactive)
11 | CC(C)=CCC[C@]1(C)C=Cc2c(O)c3c(c(CC=C(C)C)c2O1)O[C@]12C(=C[C@@H]4CC1C(C)(C)O[C@@]2(C/C=C(/C)C(=O)O)C4=O)C3=O | 1.24 µM (inactive) | 2.3 µM (inactive) | 0.676 µM (active) | 1.69 µM (inactive) | 0.406 µM (active) | 0.643 µM (active) | 0.442 µM (active) | 0.676 µM (active) | 0.863 µM (active) | 1.38 µM (inactive) | 2.02 µM (inactive) | 3.01 µM (inactive) | 1.34 µM (inactive) | 0.305 µM (active) | 0.419 µM (active) | 1.73 µM (inactive) | 1.92 µM (inactive) | 0.376 µM (active) | – | 1.07 µM (active)
12 | O=S(=O)(O)c1ccc(-c2c3nc(c(-c4ccc(S(=O)(=O)O)cc4)c4ccc([nH]4)c(-c4ccc(S(=O)(=O)O)cc4)c4nc(c(-c5ccc(S(=O)(=O)O)cc5)c5ccc2[nH]5)C=C4)C=C3)cc1 | > 100 µM (inactive) | 42.7 µM (inactive) | > 100 µM (inactive) | > 100 µM (inactive) | 26.5 µM (inactive) | > 100 µM (inactive) | > 100 µM (inactive) | > 100 µM (inactive) | 55 µM (inactive) | > 100 µM (inactive) | 27.1 µM (inactive) | > 100 µM (inactive) | > 100 µM (inactive) | > 100 µM (inactive) | 86.3 µM (inactive) | > 100 µM (inactive) | – | – | – | –
13 | CC(C)(C)OC(=O)Cc1ccc2c(ccn2Cc2ccccc2)c1 | 68.2 µM (inactive) | 75.2 µM (inactive) | > 100 µM (inactive) | > 100 µM (inactive) | 44.2 µM (inactive) | 60.3 µM (inactive) | 47.4 µM (inactive) | 19.8 µM (inactive) | 48.8 µM (inactive) | 56.2 µM (inactive) | > 100 µM (inactive) | > 100 µM (inactive) | > 100 µM (inactive) | 18 µM (inactive) | > 100 µM (inactive) | 69 µM (inactive) | – | – | – | –
14 | CC(=O)/C=C/c1ccc(C)cc1 | > 100 µM (inactive) | > 100 µM (inactive) | > 100 µM (inactive) | > 100 µM (inactive) | > 100 µM (inactive) | > 100 µM (inactive) | > 100 µM (inactive) | > 100 µM (inactive) | > 100 µM (inactive) | > 100 µM (inactive) | > 100 µM (inactive) | > 100 µM (inactive) | > 100 µM (inactive) | > 100 µM (inactive) | > 100 µM (inactive) | > 100 µM (inactive) | – | – | – | –
15 | CC(C)N(C(=O)C12C3C4C1C1C2C3C41C#N)C(C)C (configuration not stated) | > 100 µM (inactive) | > 100 µM (inactive) | > 69.2 µM (inactive) | > 100 µM (inactive) | > 87.1 µM (inactive) | > 100 µM (inactive) | > 47.1 µM (inactive) | > 100 µM (inactive) | > 100 µM (inactive) | > 100 µM (inactive) | > 100 µM (inactive) | > 100 µM (inactive) | > 100 µM (inactive) | > 100 µM (inactive) | > 100 µM (inactive) | > 100 µM (inactive) | – | – | – | –
16 | CCOC(=O)c1cc(C2=C(S)N(CC(C)CC)CC2)c(C(=O)CC)[nH]1 (configuration not stated) | 20.6 µM (inactive) | 18.2 µM (inactive) | 10 µM (inactive) | – | 14.9 µM (inactive) | 21.5 µM (inactive) | 17.4 µM (inactive) | 13.1 µM (inactive) | 25.1 µM (inactive) | – | 22.1 µM (inactive) | 23.5 µM (inactive) | – | 4.56 µM (inactive) | 15.3 µM (inactive) | 16.6 µM (inactive) | 29.5 µM (inactive) | 21.3 µM (inactive) | 16.6 µM (inactive) | 15.6 µM (inactive)
